pKi: −log10 of the molar value.
What was measured:
[1] = tested on: 5-HTRs or any other receptor; assay: PDSP primary radioligand binding screen, CNS receptor panel; parameters: dose or concentration left out as unconfirmed; settings: data not shown
Protocol: (§1) Prior to screening, cyanobacterial samples are extracted exhaustively in a solution of dichloromethane and methanol, then the extract is subjected to column chromatography using the solvent step gradient illustrated in Figure 1 to create nine fractions. The polarities of the solvents in this step gradient increase linearly with each fraction. A sample of each fraction and the crude is prepared and sent to the NIMH Psychoactive Drug Screening Program (PDSP) for screening against a panel of ~50 receptor including 5-HTRs, DARs, MATs, σRs, and other CNS receptors.
(§2) From the extracts of 37 cyanobacterial field collections from Panama and Curacao, 19 crude extracts and 301 fractions were sent to PDSP for CNS screening. Due to sample size requirements not all fractions created are sent for screening, resulting in a lower number of total fractions screened compared to the theoretical amount of 370 fractions and crudes. […] Data analysis of results from these screens is presented herein.
IC50 determinations/receptor binding profiles were generously provided by the National Institute of Mental Health’s Psychoactive Drug Screening Program, Contract # HHSN-271-2018-00023-C (NIMH PDSP). The NIMH PDSP is Directed by Bryan L. Roth MD, PhD at the University of North Carolina at Chapel Hill and Project Officer Jamie Driscoll at NIMH, Bethesda MD, USA. Detailed information regarding the assay protocol can be found at http://pdspdb.unc.edu/pdspWeb/.

5-HT2C = target: T1, 5-HT2C (Homo sapiens, UniProt P28335); assay: PDSP radioligand competitive binding, 5-HT2C
T1 sequence (P28335 33-458): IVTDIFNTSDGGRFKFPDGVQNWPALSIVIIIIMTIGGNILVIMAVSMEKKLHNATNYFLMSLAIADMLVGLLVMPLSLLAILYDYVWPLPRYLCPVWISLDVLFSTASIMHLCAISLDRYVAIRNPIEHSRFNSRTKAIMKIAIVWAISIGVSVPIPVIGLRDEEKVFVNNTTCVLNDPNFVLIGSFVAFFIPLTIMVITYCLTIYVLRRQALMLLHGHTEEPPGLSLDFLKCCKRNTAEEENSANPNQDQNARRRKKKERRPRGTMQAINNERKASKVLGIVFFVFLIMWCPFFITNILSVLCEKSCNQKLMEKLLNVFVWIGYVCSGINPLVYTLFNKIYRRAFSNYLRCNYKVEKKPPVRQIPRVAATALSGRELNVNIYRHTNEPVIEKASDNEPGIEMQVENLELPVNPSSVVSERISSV
Protocol: as §1, §2
(§3) A cyanobacterial biomass collected at Isla Mina, Panama was extracted exhaustively with CH2Cl2-MeOH (2:1) to afford 3.3 g of crude extract given the identification code DUQ0008. This extract was fractionated to yield nine fractions (A–I). The crude extract, along with the nine fractions were submitted to PDSP for screening. […]

σ2R = target: T2, σ2R (Rattus norvegicus, UniProt Q5U3Y7); assay: PDSP radioligand competitive binding, σ2R
T2 sequence (Q5U3Y7 1-176): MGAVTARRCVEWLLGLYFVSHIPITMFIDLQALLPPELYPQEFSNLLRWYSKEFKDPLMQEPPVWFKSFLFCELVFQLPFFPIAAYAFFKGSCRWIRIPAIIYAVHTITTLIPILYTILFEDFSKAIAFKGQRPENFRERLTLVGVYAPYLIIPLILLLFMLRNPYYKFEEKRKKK
Protocol: as §1, §2, §3

[2] = pure compound resubmitted to PDSP

inhibition of radioligand binding at 5-HTRs or any other receptor [1] [%] | Structure (SMILES) | inhibition of binding at 5-HT2C (5-HT2C; primary binding, pure compound) | pKi (5-HT2C; [2]) | affinity for the σ2R (σ2R; in words) | pKi (σ2R; [2])
< 50 | C=C(CCCCCCCCCCCCC)CCCC(=O)O/C=C/COC(C)=O [compound 4, propenediester] |  |  |  | 
< 50 | CCCCCCCCC/C(C)=C/C(C/C=C/CCC(=O)OCC)OC (stereo not shown) [compound 2] |  |  |  | 
< 50 | CCCCCCC[C@H]1C[C@@H]1CCC(=O)OCC [compound 3] |  |  |  | 
 | C#CCCC[C@H]1OC(=O)[C@H](C(C)C)N(C)C(=O)[C@@H]2CCCN2C(=O)[C@H]([C@@H](C)CC)OC(=O)[C@H](C(C)C)N(C)C(=O)[C@H](C(C)C)NC(=O)[C@H]1C [compound 1, veraguamide C] | greater than 50% | < 5.00 | moderate and selective affinity | 6.50
